These results are taken from patent publication US20100048727A1, “PERFLUOROKETONE COMPOUNDS AND USES THEREOF” (priority 2007, published 2010).

As a reminder, the inhibition is the drop in the measured response relative to a control, in per cent. As usually defined, the melting point is the temperature of the solid-liquid transition.

One series concerns the target T1, GV sPLA2 (Homo sapiens, UniProt P39877).
T1 sequence (P39877 21-138): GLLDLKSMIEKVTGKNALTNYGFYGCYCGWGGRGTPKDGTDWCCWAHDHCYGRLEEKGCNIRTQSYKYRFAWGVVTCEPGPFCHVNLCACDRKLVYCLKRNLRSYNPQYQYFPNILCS
Briefly: GV sPLA2 activity assay (release of [14C]-palmitic acid from mixed micelles). In kind it is biochemical. To be noted: mean and standard error; for Average percent inhibition GV sPLA2: 0.091 mole fraction, n = 3. How it is done:
(§1) Inhibition of phospholipase A2 by perfluoroketone compounds. […] (2002) J. Med. Chem. 45: 2891-2893; Kokotos, G. et al. (2004). J. Med. Chem. 47: 3615-3628). The standard GVIA iPLA2 activity assay utilizes DPPC/Triton™ X-100 mixed micelles at a ratio of 1:4 as previously described (Stephens D. et al. (2006). J. Med. Chem., 49: 2821-2828). GV sPLA2 activity was measured in an assay similar to the assays for GIVA cPLA2 and GVIA iPLA2.

The target in another series is T2, GVIA iPLA2 (Homo sapiens, UniProt O60733).
T2 sequence (O60733 1-806): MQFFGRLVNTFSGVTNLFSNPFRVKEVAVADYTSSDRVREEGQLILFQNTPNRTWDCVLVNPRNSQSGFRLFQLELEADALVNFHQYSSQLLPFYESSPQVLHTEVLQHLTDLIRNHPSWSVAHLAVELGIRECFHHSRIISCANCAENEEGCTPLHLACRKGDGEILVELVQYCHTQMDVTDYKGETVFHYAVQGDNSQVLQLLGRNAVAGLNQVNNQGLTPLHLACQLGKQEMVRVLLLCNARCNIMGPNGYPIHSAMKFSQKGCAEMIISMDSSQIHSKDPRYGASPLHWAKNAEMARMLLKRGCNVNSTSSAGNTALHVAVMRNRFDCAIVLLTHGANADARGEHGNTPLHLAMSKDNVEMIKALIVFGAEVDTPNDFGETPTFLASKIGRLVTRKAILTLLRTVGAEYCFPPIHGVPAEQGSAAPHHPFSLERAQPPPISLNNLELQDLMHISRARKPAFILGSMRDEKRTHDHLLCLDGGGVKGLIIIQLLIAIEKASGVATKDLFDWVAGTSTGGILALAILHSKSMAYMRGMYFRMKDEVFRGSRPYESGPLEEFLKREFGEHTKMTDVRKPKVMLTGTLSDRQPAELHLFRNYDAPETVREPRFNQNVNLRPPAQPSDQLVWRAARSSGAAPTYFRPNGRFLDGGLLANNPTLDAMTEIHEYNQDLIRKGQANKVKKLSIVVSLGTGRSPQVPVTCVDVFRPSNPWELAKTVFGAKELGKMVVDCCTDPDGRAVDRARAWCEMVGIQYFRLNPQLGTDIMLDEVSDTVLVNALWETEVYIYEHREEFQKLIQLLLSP
The experiment in a line: standard GVIA iPLA2 activity assay (DPPC/Triton X-100 mixed micelles). To be noted: mean and standard error; for Average percent inhibition GVIA iPLA2: 0.091 mole fraction, n = 3; for inhibition at 0.091 mole fraction: n = 3, read-out: Average percent inhibition GVIA iPLA2. Type of series: biochemical. How it is done:
as §1

Another series addresses T3, human GIVA cPLA2 (Homo sapiens, UniProt P47712).
T3 sequence (P47712 1-749): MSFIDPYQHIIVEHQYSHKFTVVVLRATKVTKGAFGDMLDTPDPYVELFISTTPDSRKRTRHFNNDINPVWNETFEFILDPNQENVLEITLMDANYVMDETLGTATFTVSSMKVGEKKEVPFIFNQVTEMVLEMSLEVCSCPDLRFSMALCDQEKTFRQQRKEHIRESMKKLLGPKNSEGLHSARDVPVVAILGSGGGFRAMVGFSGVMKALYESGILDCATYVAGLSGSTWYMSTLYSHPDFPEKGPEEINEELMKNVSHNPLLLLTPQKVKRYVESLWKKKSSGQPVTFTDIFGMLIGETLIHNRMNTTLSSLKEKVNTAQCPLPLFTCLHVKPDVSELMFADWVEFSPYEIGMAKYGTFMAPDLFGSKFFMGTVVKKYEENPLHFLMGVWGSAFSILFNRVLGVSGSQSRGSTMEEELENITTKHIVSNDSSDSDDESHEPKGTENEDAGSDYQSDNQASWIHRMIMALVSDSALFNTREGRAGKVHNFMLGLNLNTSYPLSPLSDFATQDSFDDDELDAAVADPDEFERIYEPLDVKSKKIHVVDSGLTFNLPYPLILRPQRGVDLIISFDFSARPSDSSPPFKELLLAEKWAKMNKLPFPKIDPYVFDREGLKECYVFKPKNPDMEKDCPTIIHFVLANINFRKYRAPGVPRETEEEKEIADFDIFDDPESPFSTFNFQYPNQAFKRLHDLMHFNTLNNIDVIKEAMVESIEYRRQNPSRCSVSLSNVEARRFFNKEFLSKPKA
Briefly: GIVA cPLA2 specific mixed micelle assay. In kind it is biochemical. To be noted: mean and standard error; for Average percent inhibition GIVA cPLA2: 0.091 mole fraction, n = 3. The procedure: as §1

Another series deals with EAE-induced SJL/J mice. The experiment in a line: Clinical course of EAE in SJL/J mice treated with fluoroketone compounds. In kind it is in vivo.

With `CCCCCCCCCCCCCCC(F)C(=O)C(F)(F)F` (stereo not drawn) [FKGK8, 1,1,1,3-Tetrafluoro-2-heptadecanone], the “Average percent inhibition GV sPLA2” value on GV sPLA2 was 86 ± 10%. The “Average percent inhibition GVIA iPLA2” value on GVIA iPLA2 was found to be 93 ± 4%. Besides, at human GIVA cPLA2, the “Average percent inhibition GIVA cPLA2” value amounted to 94 ± 2%.

Consider `O=C(C(F)(F)F)C(F)(F)CCCc1ccccc1` [FKGK7, 1,1,1,3,3-Pentafluoro-6-phenyl-hexan-2-one], for which the inhibition at 0.091 mole fraction on GV sPLA2 (n = 3, read-out: Average percent inhibition GV sPLA2) turned out to be 59 ± 12%; at GVIA iPLA2, 49 ± 12%; at human GIVA cPLA2 (n = 3, read-out: Average percent inhibition GIVA cPLA2), 27 ± 3%.

For the compound `O=C(CCc1ccc(OCc2ccccc2)cc1)C(F)(F)F` [FKGK5, 1,1,1-Trifluoro-4-(4-benzyloxy-phenyl)-2-butanone], the melting point lay within 71 to 72 °C. For the same compound, the “Average percent inhibition GV sPLA2” value at GV sPLA2 amounted to 49 ± 12%. Besides, at GVIA iPLA2, the “Average percent inhibition GVIA iPLA2” value stood at 71 ± 14%. The “Average percent inhibition GIVA cPLA2” value at human GIVA cPLA2 was found to be 88 ± 1%.

On to `CCCCCCOc1ccc(CCC(=O)C(F)(F)F)cc1` [FKGK1, 1,1,1-Trifluoro-4-(4-hexyloxy-phenyl)-2-butanone], for which the “Average percent inhibition GV sPLA2” value on GV sPLA2 came out at 82 ± 8%. Further, at GVIA iPLA2, the “Average percent inhibition GVIA iPLA2” value is given as 85 ± 4%. The “Average percent inhibition GIVA cPLA2” value at human GIVA cPLA2 was found to be 91 ± 2%.

As for `CCCCCCCCCCOc1ccc(CCCCC(=O)C(F)(F)F)cc1` [FKGK4, 1,1,1-Trifluoro-6-(4-decyloxy-phenyl)-2-hexanone], the “Average percent inhibition GV sPLA2” value on GV sPLA2 stood at 84 ± 7%. The inhibition at 0.091 mole fraction at GVIA iPLA2 came to 94 ± 8%. In addition, the “Average percent inhibition GIVA cPLA2” value at human GIVA cPLA2 came to 95 ± 2%.

On to `O=C(CCCCCc1ccccc1)C(F)(F)C(F)(F)F` [FKGK12, 1,1,1,2,2-Pentafluoro-8-phenyl-3-octanone], for which the “Average percent inhibition GV sPLA2” value on GV sPLA2 amounted to 46 ± 8%. Also, at GVIA iPLA2, the “Average percent inhibition GVIA iPLA2” value is 98 ± 5%. Moreover, the “Average percent inhibition GIVA cPLA2” value on human GIVA cPLA2 was 56 ± 4%.

For the compound `CCCCCCOc1ccc(CCCCC(=O)C(F)(F)F)cc1` [FKGK2, 1,1,1-Trifluoro-6-(4hexyloxy-phenyl)-2-hexanone], the “Average percent inhibition GV sPLA2” value on GV sPLA2 worked out at 86 ± 2%. Besides, the “Average percent inhibition GVIA iPLA2” value on GVIA iPLA2 stood at 91 ± 4%. The “Average percent inhibition GIVA cPLA2” value on human GIVA cPLA2 is given as 92 ± 3%. Moreover, the “severity and progression of the disease (EAE)” value in the series on EAE-induced SJL/J mice (delayed treatment from day 11 after immunization, 2 weeks, i.p., vs vehicle) is “did not show any significant improvement”. For the same compound, the “maximum clinical disability score” value in the series with EAE-induced SJL/J mice (treatment before onset of symptoms, daily for 3 weeks from day 6, course until day 40, 5-point scale) is reported as “around 0.5 grade”.

Take `CCCCCCCCCCOc1ccc(CCC(=O)C(F)(F)F)cc1` [FKGK3, 1,1,1-Trifluoro-4-(4-decyloxy-phenyl)-2-butanone]: the “Average percent inhibition GV sPLA2” value at GV sPLA2 worked out at 80 ± 6%. The “Average percent inhibition GVIA iPLA2” value at GVIA iPLA2 was 94 ± 8%. Moreover, the “Average percent inhibition GIVA cPLA2” value at human GIVA cPLA2 is recorded as 96 ± 2%.

Turning to `CCCCCCOc1ccc(CCC(=O)C(F)(F)C(F)(F)F)cc1` [FKGK14, 1,1,1,2,2-Pentafluoro-5-(4-hexyloxy-phenyl)-3-pentanone], the “Average percent inhibition GV sPLA2” value at GV sPLA2 is reported as 86 ± 4%. Moreover, the “Average percent inhibition GVIA iPLA2” value on GVIA iPLA2 was determined as 95 ± 5%. Also, the “Average percent inhibition GIVA cPLA2” value on human GIVA cPLA2 was found to be 73 ± 4%.

As to `O=C(CCCCCCc1ccccc1)C(F)(F)C(F)(F)F` [FKGK13, 1,1,1,2,2-Pentafluoro-9-phenyl-3-nonanone], the “Average percent inhibition GV sPLA2” value at GV sPLA2 is listed as 75 ± 10%. Moreover, the “Average percent inhibition GVIA iPLA2” value on GVIA iPLA2 is 98 ± 4%. Also, the “Average percent inhibition GIVA cPLA2” value at human GIVA cPLA2 is 65 ± 12%.
